The results in this text go back to patent publication EP1285919A1, “C10 Carbonate substituted taxanes as antitumor agents” (Florida State University Research Foundation, Inc., priority 2001, dated 2003).

Where two headings read alike, the source gives them in different places.

The test system of data set [1] is SKMES Human Lung Carcinoma Xenograft. As for the experimental part:
The compound was administered as a single bolus by the oral route in a study to investigate the efficacy of this compound against the SKMES human lung cancer xenograft.
Female Nu/Nu mice (6-8 weeks of age; implanted with 1 mm^3 SKMES lung carcinoma fragments in the flank) were sorted into four treatment groups of six mice each. SKMES size ranges and group mean SKMES size ranges were 126-448 mg and 238-241 mg, respectively. […] Treatments were administered as a single oral bolus on Day 1, and the study was terminated on Day 60.
The results are summarized in Table 13 and include mean days of survival (MDS), number of toxic deaths, number of survivors, number of complete or partial responses, and number with stable disease. The mean days of survival is the number of days after which a SKMES neoplasm reached a size of 2.0 g and the animal was euthanized. A complete response is obtained if the tumor is not palpable at the end of the study. A partial response is obtained if the tumor shrinks to a size smaller than its size on Day 1 of the study.
The total response rate was 100% with four complete responses and two partial responses. The total response rate is defined as the percentage of evaluable animals (excluding deaths due to procedure or toxicity) in a group that experience complete or partial responses at the termination of the study.

For a further data set, the system named is SK-MES carcinoma. The protocol:
(§1) In Vivo Evaluation of Antitumor Compounds Against Human Lung Carcinoma Xenografts
(§2) The compounds were prepared in the manner as described for Solution 2 of Example 10. Taxol (paclitaxel, Bristol Meyers Squibb), used as a control, was obtained as the marketed pharmaceutical drug.
(§3) Taxol itself was given as a split i.v. dose of 36 mg/kg, with the two 18 mg/kg doses separated by one hour. Vehicle control animals were dosed twice intravenously with half the total volume being given separated by one hour. The study was terminated on Day 60.
(§4) The results are summarized in Table 1 and include mean days of survival (MDS), number of toxic deaths, number of survivors, number of complete or partial responses, and number with stable disease. The mean days of survival is the number of days after which a SKMES neoplasm reached a size of 1.5 g and the animal was euthanized. A complete response is obtained if the tumor is not palpable at the end of the study. A partial response is obtained if the tumor shrinks to a size smaller than its size on Day 1 of the study.
(§5) A tumor scoring system was designed to provide a more quantitative ranking of efficacy (therapeutic potential) among the antitumor agents evaluated against the different human solid tumor xenografts. Each mouse in a study was given a score of from 1 to 10 at the end of the study. The scores can be summarized as follows:
(§6) The individual score for each mouse was averaged into a mean score for each treatment group. […]

Data set [2] relates to NCI-H1299 (H1299) carcinoma. The protocol:
as §1, §2, §3, §4, §5, §6
The treatment protocol for the H1299 test was identical to the SK-MES test protocol. […]

The subject of another data set is HCT116. Description: In vitro cytotoxicity, cell colony formation assay. The data set is classed as cell-based. As to conditions: read-out: IN VITRO ID 50. The protocol: In Vitro cytotoxicity measured by the cell colony formation assay
Four hundred cells (HCT116) were plated in 60 mm Petri dishes containing 2.7 mL of medium (modified McCoy's 5a medium containing 10% fetal bovine serum and 100 units/mL penicillin and […] streptomycin). The cells were incubated in a CO2 incubator at 37 °C for 5 h for attachment to the bottom of Petri dishes. The compounds identified in Example 2 were made up fresh in medium at ten times the final concentration, and then 0.3 mL of this stock solution was added to the 2.7 mL of medium in the dish. The cells were then incubated with drugs for 72 h at 37 ° C. At the end of incubation the drug-containing media were decanted, the dishes were rinsed with 4 mL of Hank's Balance Salt Solution (HBSS), 5 mL of fresh medium was added, and the dishes were returned to the incubator for colony formation. The cell colonies were counted using a colony counter after incubation for 7 days.

For data set [3], the system named is A2780 Human Ovarian Carcinoma Xenografts. Description: In vivo evaluation against A2780 ovarian carcinoma xenografts. On the set-up: species or system NCr-nude mice. As for the experimental part: In Vivo Evaluation of Antitumor Compounds Against A2780 Human Ovarian Carcinoma Xenografts
The A2780 group mean size range was 237-243 mg. Dosing was initiated on Day 1. […] Treatment groups are detailed in Table 5.

The test system of data set [4] is VM46 Human Colon Carcinoma. Kind of data set: In vivo evaluation against VM46 colon carcinoma xenografts. Also noted: species or system NCr-nude mice. As for the experimental part: In Vivo Evaluation of Antitumor Compounds Against VM46 Human Colon Carcinoma
The VM46 tumor group mean size range was 181-188 mg. Dosing was initiated on Day 1. […] Taxotere was given i.v. at a dose of 70 mg/kg on a qd x 1 schedule. […] The study was terminated on Day 64. Treatment groups are detailed in Table 11.

The test system of data set [5] is A375 Human Melanoma Xenografts. Kind of data set: In vivo evaluation against A375 melanoma xenografts. The protocol:
In Vivo Evaluation of Antitumor Compounds Against A375 Human Melanoma Xenografts
Antitumor compounds were prepared in a vehicle of 5% ethanol, 5% Cremophor and 90% isotonic saline in the manner as described for Solution 1 of Example 10. Taxol (paclitaxel; Bristol Meyers Squibb) and Taxotere (docetaxel; Rhône-Poulenc Rorer) were obtained as the marketed pharmaceutical drugs. The dosing volume was 0.3 ml per 20 g mouse.
Female NCr-nude mice were implanted subcutaneously with 1 mm^3 A375 melanoma fragments in the flank were sorted into treatment groups of six mice each, except the Taxotere treatment group which was a group of seven mice. […] Dosing was initiated on Day 1. The antitumor compounds were given i.v. at an estimated maximum tolerated dose (MTD) appropriate for each agent on a qd x 1 schedule (single administration of compound). The i.v. taxol was given on the qd x 1 schedule as two split doses (one hour between) of 12 mg/kg per split dose (total dose = 24 mg/kg). Taxol was also administered i.p. on a qd x 5 schedule at a daily dose of 18 mg/kg. Taxotere was given i.v. on a qd x 1 schedule at a dose of 70 mg/kg. The vehicle was administered i.v. to control mice in Group 1 on the qd x 1 schedule. The study was terminated on Day 60. Treatment groups are detailed in Table 7.
The results are summarized in Table 8 and include mean days of survival (MDS), number of toxic deaths, number of survivors, number of complete or partial responses, and number with stable disease. The mean days of survival is the number of days after which a neoplasm reached a size of 2.0 g and the animal was euthanized. A complete response is obtained […].

The mark [6] stands for this setting: 1755 49 mg/kg single oral bolus, six mice.
The mark [7] stands for this setting: Group 4: 49 mg/kg single oral bolus Day 1, 6 mice, study to Day 60.
[8] abbreviates: number of mice of six, i.v. split dose qd x 1, Taxol 36 mg/kg, 1755 49 mg/kg.
[9] abbreviates: HCT116, 72 h with drug, colonies counted after 7 days, concentration producing 50% inhibition of colony formation.
The mark [10] stands for this setting: Group 5: 70 mg/kg i.v. qd x 1, group of six mice, study to Day 60.
Setting [11] is: i.v. qd x 1, Taxol 24 mg/kg, Taxotere 70 mg/kg.
Where [12] appears, read: i.v. qd x 1, Taxol 24 mg/kg, Taxotere 70 mg/kg, 2.0 g cut-off.
[13] abbreviates: Group 5: 70 mg/kg i.v. qd x 1, 6 mice, study to Day 64.
Setting [14] is: Group 5: 70 mg/kg i.v. qd x 1, 7 mice, study to Day 60.

In the case of `CCOC(=O)OC1C(=O)C2(C)C(O)CC3OCC3(OC(C)=O)C2C(OC(=O)c2ccccc2)C2(O)CC(OC(=O)C(O)C(NC(=O)OC(C)(C)C)c3cccs3)C(C)=C1C2(C)C` (stereo not drawn) [Compound 1755, 3'-Desphenyl-3'-(2-thienyl)-10-ethoxycarbonyl-10-deacetyl taxotere], the total response rate in data set [1] (1755 49 mg/kg single oral bolus Day 1, six mice, study ended Day 60) is recorded as 100%. In data set [1] (setting [6]), the complete responses result is “four”. Moreover, the partial responses result in data set [1] (setting [6]) is listed as “two”. For the same molecule, the “% Total Response” value in data set [1] (setting [7]) stood at 100%. In addition, the “Complete Response” value in data set [1] (setting [7]) was 4. The “Partial Response” value is 2 in data set [1] (setting [7]); 0 with SK-MES carcinoma (number of mice of six, tumor smaller than on Day 1); 0 in data set [2] (number of mice of six). Moreover, the “Stable Disease” value in data set [1] (setting [7]) is recorded as 0; in the data set with SK-MES carcinoma (number of mice of six, tumor below 1.5 g at end of study), 1; in data set [2] (number of mice of six), 1. Further, the Survivors in data set [1] (setting [7]) was 6; in the data set on SK-MES carcinoma (number of mice of six, study ended Day 60), 6; in data set [2] (number of mice of six) it was 4. Besides, the “Toxic Deaths” value in data set [1] (setting [7]) turned out to be 0; in the data set with SK-MES carcinoma (setting [8]) it was 0; in data set [2] (setting [8]), 2. In addition, the tolerability result with SK-MES carcinoma (1755 49 mg/kg i.v.) is given as “well tolerated”. The “Mean Score” value was determined as 9.2 ± 0.8 with SK-MES carcinoma (tumor score 1 to 10 per mouse, averaged per group (10 = complete response)) and 5.8 ± 2 in data set [2] (tumor score 1 to 10 per mouse, averaged per group). In addition, in the data set on HCT116 (setting [9]), the IC50 is less than 1 nM.
In the case of `CCOC(=O)OC1C(=O)C2(C)C(O)CC3OCC3(OC(C)=O)C2C(OC(=O)c2ccccc2)C2(O)CC(OC(=O)C(O)C(NC(=O)OCC(C)C)c3cccs3)C(C)=C1C2(C)C` (stereo not drawn) [Compound 3003], in the data set on HCT116 (setting [9]), the IC50 is less than 10 nM.
On to `CCOC(=O)OC1C(=O)C2(C)C(O)CC3OCC3(OC(C)=O)C2C(OC(=O)c2ccccc2)C2(O)CC(OC(=O)C(O)C(NC(=O)c3cccs3)c3ccco3)C(C)=C1C2(C)C` (stereo not drawn) [Compound 4088], for which the IC50 in the data set with HCT116 (setting [9]) is less than 10 nM.
`COC(=O)OC1C(=O)C2(C)C(O)CC3OCC3(OC(C)=O)C2C(OC(=O)c2ccccc2)C2(O)CC(OC(=O)C(O)C(C=C(C)C)NC(=O)OC(C)(C)C)C(C)=C1C2(C)C` (stereo not drawn) [Compound 1999]: the IC50 with HCT116 (setting [9]) was less than 1 nM.
For `CC(=O)O[C@@]12CO[C@@H]1C[C@H](O)[C@@]1(C)C(=O)[C@H](O)C3=C(C)[C@@H](OC(=O)[C@H](O)[C@@H](NC(=O)OC(C)(C)C)c4ccccc4)C[C@@](O)([C@@H](OC(=O)c4ccccc4)[C@H]21)C3(C)C` [Docetaxel, docetaxel], the “MDS (n)” value was 27.4 ± 3.5 (5) days in data set [3] (Group 5: 70 mg/kg i.v. qd x 1, group of six mice, n=5, 2.0 g endpoint, study to Day 60); 45.3 ± 3.6(6) days in data set [4] (Group 5: 70 mg/kg i.v. qd x 1, 6 mice, n=6, 1.5 g endpoint, study to Day 64); 21.5 ± 0.5(7) days in data set [5] (Group 5: 70 mg/kg i.v. qd x 1, 7 mice, n=7, 2.0 g endpoint, study to Day 60). In addition, the “Complete Response” value in data set [3] (setting [10]), in data set [4] (setting [13]) and in data set [5] (setting [14]) was 0 each time. The “Mean Score” value was 2.5 ± 0.3 in data set [3] (setting [10]), 2 ± 0 in data set [4] (setting [13]) and 2 ± 0 in data set [5] (setting [14]). Moreover, the “Partial Response” value in data set [3] (setting [10]), in data set [4] (setting [13]) and in data set [5] (setting [14]) was 0 throughout. Besides, the “Stable Disease” value in data set [3] (setting [10]), in data set [4] (setting [13]) and in data set [5] (setting [14]) was 0 throughout. In addition, the Survivors in data set [3] (setting [10]) and in data set [5] (setting [14]) was 0 throughout. For the same molecule, the “Toxic Deaths” value in data set [3] (setting [10]), in data set [4] (setting [13]) and in data set [5] (setting [14]) was 0 in each case. Further, the “increase in survival / survival extension compared to Group 1 controls” value in data set [3] (setting [11]) is 134%. For the same molecule, the MDS in data set [3] (setting [12]) worked out at 27.4 days; in data set [4] (i.v. qd x 1, Taxol 24 mg/kg (four mice), Taxotere 70 mg/kg, 1.5 g endpoint) it was 45.3 days; in data set [5] (setting [12]), 21.5 days. In addition, the IC50 with HCT116 (Homo sapiens, HCT-116) was 0.6 nM. Besides, in data set [5] (setting [11]), the “survival extension compared to Group 1 controls” value was determined as 49%.
`CCOC(=O)OC1C(=O)C2(C)C(O)CC3OCC3(OC(C)=O)C2C(OC(=O)c2ccccc2)C2(O)CC(OC(=O)C(O)C(NC(=O)OC(C)(C)C)c3ccc([N+](=O)[O-])cc3)C(C)=C1C2(C)C` (stereo not drawn) [Compound 1866]: in the data set on HCT116 (setting [9]), the IC50 was less than 1 nM.
